Experimental findings from patent publication US8044042B2, “Thienotriazolodiazepine compound and medicinal use thereof” (Mitsubishi Tanabe Pharma Corporation, priority 2005, dated 2011) are described below.

Read-outs that look alike come from different tables or passages of the source.

The IC50 is the point on the concentration scale where inhibition reaches its midpoint.

For assay [1], the system named is CD28-dependent T cell growth. Nature of the assay: Mouse T cell proliferation stimulated with anti-CD28 antibody and PMA (tritiumthymidine uptake). The class given is cell-based. The conditions noted are these: for IC50: BALB/c mouse T cells, 10 ng/mL PMA and 250 ng/mL anti-CD28 antibody, tritiumthymidine uptake, read-out: CD28-dependent T cell growth suppressive action (IC50); for CD28-dependent T cell growth suppressive action (in words): mouse T cells stimulated with PMA and anti-CD28 antibody. The procedure: The spleen was aseptically isolated from 6-7-week-old male BALB/c mice (CHARLES RIVER LABORATORIES JAPAN, INC.), and splenocyte suspension was prepared using RPMI1640 medium (manufactured by Sigma-Aldrich Ltd.). After hemolysis by a hypotonic treatment using a mixed solution of 0.83% aqueous ammonium chloride and Tris-HCl buffer (pH 7.65) at 9:1, a T cell concentrated fraction was obtained using a T cell concentrated column (manufactured by R&D systems). A cell suspension prepared using RPMI1640 medium containing 10% fetal calf serum (FCS, manufactured by Sigma-Aldrich Ltd.) was added to a flat-bottomed 96 well microtest plate (manufactured by Becton, Dickinson and Company) at 5×10^5 cells/well. Furthermore, a test compound diluted with a medium to the final concentration of 1-10000 nmol/L, 10 ng/mL PMA (manufactured by Sigma-Aldrich Ltd.) and 250 ng/mL anti-CD28 antibody (manufactured by BD pharmingen) were added, and the mixture was cultured under the conditions of 37° C., 5% carbon dioxide, 95% air for 20 hr. After the completion of culture, tritiumthymidine (specific activity: […], manufactured by MP Biochemicals) was added at 18.5 kBq/well, and the mixture was further cultured for 4 hr. Then, the cells were recovered in a glass fiber filter using a cell harvester (manufactured by Molecular Devices Corp.), the radioactivity taken into the cells was measured using a plate scintillation counter (microbeta 1460, manufactured by PerkinElmer), based on which the mouse T cell growth induced by stimulation with PMA and anti-CD28 antibody was measured. To be specific, suppressing rate (%)=(1−(radioactivity (cpm) of well added with test compound)/(radioactivity (cpm) of well without addition of test compound))×100 was calculated from the average amount of tritiumthymidine uptake (cpm) of T cells in each well added with various concentrations of test compound. In addition, based on the dose response curve obtained by plotting the average tritiumthymidine uptake amount (cpm) or suppressing rate on the vertical axis and the concentration on the transverse axis, the concentration of the compound (IC50) suppressing the value to 50% of that of the control group was determined by nonlinear regression.

The test system of assay [2] is TYPE II Collagen-Induced Arthritis in DBA/1J Mouse. Briefly: Type II collagen-induced arthritis in DBA/1J mouse. The class given is in vivo. The following applies: 840 h; for inhibition in vivo at 3 mg/kg: 3 mg/kg oral, 2 weeks from booster, average arthritis score at 35 days after primary immunization, P <0.05, read-out: suppressing rate (%) of arthritis score. The procedure: Bovine Type II collagen (purchased from collagen technical workshop) (100-200 μg) was mixed with complete Freund's adjuvant (manufactured by Sigma-Aldrich Ltd.) containing killed tuberculosis H37Ra. Using the resulting emulsion, 6 to 7-week-old male DBA/1J mice (CHARLES RIVER LABORATORIES JAPAN, INC.) were subcutaneously immunized at the tail root twice at 3 week intervals, whereby arthritis was developed. A test compound was suspended or dissolved in 0.5% carboxymethylcellulose (manufactured by Sigma-Aldrich Ltd.), and repetitively administered orally at a dose of 0.1-30 mg/kg body weight using an oral gavage needle for 2 weeks from the day of booster. As to this model, the symptoms of arthritis of four limbs were evaluated based on the following judgment criteria using the scores of from 0 to 4. The arthritis score of each mouse was shown by the total of the scores of four limbs (maximum: 16 points).
As regards the arthritis score, each group (n=5-6) was evaluated using an average value and mean error, with a group administered only with a vehicle being control, and Mann-Whitney U test was used for statistical analysis, wherein p value of 0.05 or below was determined to be significant. In the following, the suppressive action of the compound of the present invention on mouse collagen induced arthritis is shown by the suppressing rate (%) (1−(average arthritis score of compound administration group)/(average arthritis score of control group)×100) calculated from the average arthritis score at 35 days after the primary immunization.

For assay [3], the system named is Biphasic Auricular Edema in Egg Albumin-Induced Mouse. Briefly: Egg albumin-induced mouse biphasic auricular edema. The class given is in vivo. The conditions noted are these: for suppressing rate (%) of auricular edema: 3 mg/kg oral for 3 days, 24 hr later, P <0.05; for suppressive action on edema (in words): 3 mg/kg, 24 hr after induction with egg albumin. Here is the method: Using saline (0.5 ml) containing egg albumin (10 μg, manufactured by Sigma-Aldrich Ltd.) and 1 mg of aluminum hydroxide gel, 6 to 7-week-old male BALB/c mice (CHARLES RIVER LABORATORIES JAPAN, INC.) were intraperitoneally immunized. Two weeks later, egg albumin (1.25 μg) was intradermally injected into the auricle of the mice for challenge, whereby biphasic auricular edema was induced 1 hr and 24 hr after the challenge. The compound of the present invention or a pharmaceutically acceptable salt thereof was suspended or dissolved in 0.5% carboxymethylcellulose, and repetitively administered orally at a dose of 0.01-30 mg/kg body weight for 3 days, from 2 days before the antigen challenge to the day of challenge, using an oral gavage needle. As for this model, the thickness of the auricle of the mouse was measured using a dial gauge (manufactured by Ozaki MFG. Co. Ltd.) and used as an index of auricular edema. As regards the thickness of the auricle, each group (n=8) was evaluated using an average value and mean error, with a group administered only with a vehicle being control, and t-test was used for statistical analysis, wherein p value of 0.05 or below was determined to be significant.

The test system of assay [4] is Experimental Autoimmune Encephalomyelitis in SJL/J Mouse. Briefly: Experimental autoimmune encephalomyelitis in SJL/J mouse. The class given is in vivo. The following applies: 3 weeks from immunization, average EAE score at 14 days after immunization, P <0.05. Here is the method: The 139th-151st peptides (50 μg) of rat-derived proteolipid protein (manufactured by Bachem) was mixed with complete Freund's adjuvant containing killed tuberculosis H37Ra. Using the resulting emulsion, 10-week-old female SJL/J mice (CHARLES RIVER LABORATORIES JAPAN, INC.) were subcutaneously immunized on the back, whereby experimental autoimmune encephalomyelitis (EAE) was developed. The compound of the present invention or a pharmaceutically acceptable salt thereof was suspended or dissolved in 0.5% carboxymethylcellulose (manufactured by Sigma-Aldrich Ltd.), and repetitively administered orally at a dose of 3-30 mg/kg body weight using an oral gavage needle for 3 weeks from the day of immunization. As to this model, the symptoms of EAE were evaluated based on the following judgment criteria using the scores of from 0 to 5.
As regards the EAE score, each group (n=10) was evaluated using an average value and mean error, with a group administered only with a vehicle being control, and Mann-Whitney U test was used for statistical analysis, wherein p value of 0.05 or below was determined to be significant. In the following, the suppressive action of the compound of the present invention on EAE is shown by the suppressing rate (%) calculated from the average EAE score at 14 days after the immunization. […] From the results, the compound is considered effective for encephalomyelitis, multiple sclerosis and the like.

The subject of assay [5] is Mouse Graft-Versus-Host Reaction (GvHR). Briefly: Mouse graft-versus-host reaction (GvHR). The class given is in vivo. The following applies: 3 mg/kg oral for 28 days from splenocyte injection; P <0.05 vs vehicle. Here is the method:
Cyclophosphamide (manufactured by Shionogi & Co., Ltd.) is administered to male BDF1 recipient mouse (8-week-old, CHARLES RIVER LABORATORIES JAPAN, INC.) at a dose of 300 mg/kg from the tail vein as a pretreatment at 24 hr prior to injection of spleen cells. The spleen was aseptically isolated from male C57BL/6 donor mouse (8-week-old, CHARLES RIVER LABORATORIES JAPAN, INC.), minced in RPMI1640 medium (manufactured by Sigma-Aldrich Ltd.), and passed through a stainless mesh to give a splenocyte single cell suspension. After removal of red blood cells by a hypotonic treatment using a mixed solution of 0.83% aqueous ammonium chloride and Tris-HCl buffer (pH 7.65) at 9:1, splenocytes were washed and suspended in physiological saline to give a splenocyte suspension. The prepared cells were injected at 1×10^8 cells/mouse into the tail vein to induce acute GvHR. The compound of the present invention or a pharmaceutically acceptable salt thereof was suspended or dissolved in 0.5% carboxymethylcellulose, and repetitively administered orally at a dose of 3-30 mg/kg body weight for 28 days from the day of splenocyte injection, and the influence on the survival time was evaluated. After induction of acute GvHR, the survival of each individual was determined every day, and the day of confirmed death was taken as the survival time of each individual. As for the survival time, log-rank test analysis was performed using the group administered with vehicle alone as a control, and the multiplicity was adjusted by the Holm's method, wherein p value of 0.05 or below was determined to be significant.

`COC(=O)C[C@@H]1N=C(c2ccc(NC(=O)CCc3ccccc3)cc2)c2c(sc(C)c2C)-n2c(C)nnc21` [Example 311, Methyl (S)-{2,3,9-trimethyl-4-[4-(3-phenylpropionylamino)phenyl]-6H-thieno[3,2-f][1,2,4]triazolo[4,3-a][1,4]diazepin-6-yl}acetate]: the concentration for half-maximal inhibition (IC50) in assay [1] (T-cell) stood at 0.025 µM. The “CD28-dependent T cell growth suppressive action (in words)” value in assay [1] is “have a CD28-dependent T cell growth suppressive action”. For the same molecule, in assay [2], the inhibition in vivo at 3 mg/kg worked out at 85.2%.
As for `COC(=O)C[C@@H]1N=C(c2ccc(NCc3ccccc3)cc2)c2c(sc(C)c2C)-n2c(C)nnc21` [Example 167, Methyl (S)-{4-(4-benzylaminophenyl)-2,3,9-trimethyl-6H-thieno[3,2-f][1,2,4]triazolo[4,3-a][1,4]diazepin-6-yl}acetate], in assay [3], the “suppressing rate (%) of auricular edema” value came to 30.1% and the “suppressive action on edema (in words)” value is “significant suppressive action on edema”. The “suppressing rate (%) of EAE score” value in assay [4] (3 mg/kg oral) was 62%. Also, in assay [1] (T-cell), the concentration for half-maximal inhibition (IC50) is 0.029 µM. Further, the “CD28-dependent T cell growth suppressive action (in words)” value in assay [1] is given as “have a CD28-dependent T cell growth suppressive action”. Moreover, the inhibition in vivo at 3 mg/kg in assay [2] came to 61.4%. This molecule also gave a median survival time in assay [5] of 56 days.
As for `COC(=O)C[C@@H]1N=C(c2ccc(-c3cccc(C#N)c3)cc2)c2c(sc(C)c2C)-n2c(C)nnc21` [Example 8, Methyl (S)-{4-(3′-cyanobiphenyl-4-yl)-2,3,9-trimethyl-6H-thieno[3,2-f][1,2,4]triazolo[4,3-a][1,4]diazepin-6-yl}acetate], in assay [3], the “suppressing rate (%) of auricular edema” value is listed as 40.5% and the “suppressive action on edema (in words)” value is reported as “significant suppressive action on edema”. The “suppressing rate (%) of EAE score” value in assay [4] (10 mg/kg oral) was 98%. Moreover, the half-inhibitory concentration (IC50) in assay [1] (T-cell) came out at 0.026 µM. For the same molecule, the “CD28-dependent T cell growth suppressive action (in words)” value in assay [1] is reported as “have a CD28-dependent T cell growth suppressive action”. Further, in assay [2], the inhibition in vivo at 3 mg/kg stood at 50%. Also, the median survival time in assay [5] is reported as 56 days.
Regarding `C=CC[C@@H]1/C=C(\C)C[C@H](C)C[C@H](OC)[C@H]2O[C@@](O)(C(=O)C(=O)N3CCCC[C@H]3C(=O)O[C@H](/C(C)=C/[C@@H]3CC[C@@H](O)[C@H](OC)C3)[C@H](C)[C@@H](O)CC1=O)[C@H](C)C[C@@H]2OC` [Tacrolimus, tacrolimus, reference compound], the “inhibition of T cell growth at 1 μM (in words)” value in assay [1] (1 μM, calcineurin inhibitor) is on record as “hardly inhibits the growth even at 1 μM”. Besides, in assay [1] (T-cell), the IC50 is above 1 µM.
Consider `COC(=O)C[C@@H]1N=C(c2ccc(-c3ccccc3)cc2)c2c(sc(C)c2C)-n2c(C)nnc21` [Example 61, Methyl (S)-{4-biphenyl-2,3,9-trimethyl-6H-thieno[3,2-f][1,2,4]triazolo[4,3-a][1,4]diazepin-6-yl}acetate], for which, in assay [1], the half-inhibitory concentration (IC50) was 0.055 µM and the “CD28-dependent T cell growth suppressive action (in words)” value is “have a CD28-dependent T cell growth suppressive action”.
For `COC(=O)C[C@@H]1N=C(c2ccc(Nc3ccccc3)cc2)c2c(sc(C)c2C)-n2c(C)nnc21` [Example 120, Methyl (S)-{2,3,9-trimethyl-4-(4-phenylaminophenyl)-6H-thieno[3,2-f][1,2,4]triazolo[4,3-a][1,4]diazepin-6-yl}acetate], in assay [1] (T-cell), the IC50 was 0.0011 µM. Also, the “CD28-dependent T cell growth suppressive action (in words)” value in assay [1] is given as “have a CD28-dependent T cell growth suppressive action”. The inhibition in vivo at 3 mg/kg in assay [2] was 53.1%.
In the case of `Cc1sc2c(c1C)C(c1ccc(-c3cccc(C#N)c3)cc1)=NCc1nnc(C)n1-2` [Example 253, 4-(3′-cyanobiphenyl-4-yl)-2,3,9-trimethyl-6H-thieno[3,2-f][1,2,4]triazolo[4,3-a][1,4]diazepin], the IC50 in assay [1] (T-cell) amounted to 0.1 µM. For the same molecule, the “CD28-dependent T cell growth suppressive action (in words)” value in assay [1] was “have a CD28-dependent T cell growth suppressive action”. The inhibition in vivo at 10 mg/kg in assay [2] (po, read-out: suppressing rate (%) of arthritis score) turned out to be 46.4%.
